{"source": "patent US20030204063A1", "about": "“Modified biological peptides with increased potency” (priority 2003, published 2003)", "system": "CD1 mice", "assay": "Oral Glucose Tolerance Test (OGTT)", "format": "in vivo", "conditions": "for integrated increase in blood glucose (area under the curve of delta blood glucose) over 120 min following glucose administration: fasted female CD1 mice, mean±SEM", "experimental": "Oral Glucose Tolerance Test (OGTT)\nSix-week old female CD1 mice (Charles River) were fasted for at least 16 hours. Mice were given 1.5 mg of glucose per gram of body weight orally in water through a gastric savage tube at t=o min and blood was collected from a tail vein at t=0, 10, 20, 30, 60, 90 and 120 min for measurement of blood glucose using a glucose meter (Lifescan). Peptides or vehicle were injected subcutaneously 5 min prior to the glucose administration. Data were expressed as the area under the curve, calculated from the change (delta) in blood glucose for each time, using the trapezoidal rule. Therefore, the data represent the integrated increase in blood glucose over a 120 min period following glucose administration. Data presented are the mean±SEM of 4 to 11 animals per group.\nAll peptides, including wild-type GLP-1 (7-37), were tested in the OGTT test at 3 different concentrations: 1, 5 and 10 ug per mouse. In a first set of experiments (study A), peptide 3 was tested in comparison with vehicle and hGLP-1(7-37). In a second set of experiments (study B), peptides 1 and 2 were tested in comparison with vehicle and hGLP-1 (7-37).", "key": {"[1]": {"conditions": "studies A and B, 1, 5 and 10 ug per mouse subcutaneously"}}}
{"substance": "hGLP(7-37) (HAEGTFTSDVSSYLEGQAAKEFIAWLVKGRG; Glucagon-like peptide 1; UniProt P01275 98-128, looked up, fragment) [wt GLP-1, wild type human glucagon-like peptide 1 (7-37), comparator in the OGTT, reference compound]", "values": [{"measurement": "ability to completely suppress the glucose response (in words)", "setting": "[1]", "result": "not able to completely suppress the glucose response at any dose"}, {"measurement": "effect on the glucose response (in words)", "setting": "[1]", "result": "dose-related decrease in the glucose response"}]}
{"substance": "((+,−)-cis-2-Ethylcyclopropylacetic acid-His^7)-hGLP-1 (7-37) [peptide 2]", "values": [{"measurement": "integrated increase in blood glucose (area under the curve of delta blood glucose) over 120 min following glucose administration", "setting": "study B, 5 ug per mouse subcutaneously 5 min prior to oral glucose 1.5 mg/g", "result": "−17±67", "unit": "mM×120 min"}, {"measurement": "integrated increase in blood glucose (area under the curve of delta blood glucose) over 120 min following glucose administration", "setting": "study B, 10 ug per mouse subcutaneously 5 min prior to oral glucose 1.5 mg/g", "result": "61±64", "unit": "mM×120 min"}, {"measurement": "biological potency compared with wild type GLP-1 (7-37) (in words)", "setting": "study B, OGTT, subcutaneous", "result": "marked increased biological potency"}]}
{"substance": "(Hexanoyl-trans-3-His^7)-hGLP-1 (7-37) [peptide 3]", "values": [{"measurement": "integrated increase in blood glucose (area under the curve of delta blood glucose) over 120 min following glucose administration", "setting": "study A, 10 ug per mouse subcutaneously 5 min prior to oral glucose 1.5 mg/g", "result": "9±26", "unit": "mM×120 min"}]}
